# From patent US11613531B2, “Inhibitors of RHO associated coiled-coil containing protein kinase” (Kadmon Corporation, LLC, priority 2017, dated 2023)
# Target: Recombinant ROCK2 (amino acids 1-552) (Homo sapiens (Human), UniProt O75116)
# Assay: Z′-Lyte kinase assay, ROCK2
# Format: biochemical
# Details: not given
# Method in brief: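 IC50s derive from nonlinear curve fits over a 9-point, 2-fold dilution series, with single-point inhibition at 1 μM expressed relative to DMSO. Activity of truncated human ROCK1 (residues 1-535) and ROCK2 (residues 1-552) measured with the Z′-Lyte kinase format.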
# Chain of Recombinant ROCK2 (amino acids 1-552) (O75116 1-552): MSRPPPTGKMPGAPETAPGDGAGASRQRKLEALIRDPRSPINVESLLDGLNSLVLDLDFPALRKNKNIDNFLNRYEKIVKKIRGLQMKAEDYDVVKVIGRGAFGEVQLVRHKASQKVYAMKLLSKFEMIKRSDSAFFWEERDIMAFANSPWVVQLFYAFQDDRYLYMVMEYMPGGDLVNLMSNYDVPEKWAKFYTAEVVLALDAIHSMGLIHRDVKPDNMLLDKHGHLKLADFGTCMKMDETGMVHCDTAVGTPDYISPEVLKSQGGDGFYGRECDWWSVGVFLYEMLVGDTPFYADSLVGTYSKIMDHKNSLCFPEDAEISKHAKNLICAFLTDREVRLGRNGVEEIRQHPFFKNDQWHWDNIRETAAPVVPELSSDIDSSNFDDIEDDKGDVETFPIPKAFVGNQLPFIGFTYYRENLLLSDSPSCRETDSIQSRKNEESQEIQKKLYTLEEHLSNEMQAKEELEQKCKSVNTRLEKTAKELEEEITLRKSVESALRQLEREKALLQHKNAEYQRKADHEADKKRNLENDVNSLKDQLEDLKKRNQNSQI
row,SMILES,IC50
1,"c1ccc(CNC2CCCN(c3nccc(Nc4ccc5[nH]ncc5c4)n3)C2)cc1 (stereo not drawn) [Example 234, N-(2-(3-(benzylamino)piperidin-1-yl)pyrimidin-4-yl)-1H-indazol-5-amine]",1800 nM

# Same assay, conditions: 1 μM compound; read-out: ROCK2 % inh. @ [conc]
row,SMILES,inhibition at 1 µM
1,"CC1CN(c2ncc(Cl)c(Nc3ccc4[nH]ncc4c3)n2)CCN1 (stereo not drawn) [Example 180, N-(5-chloro-2-(3-methylpiperazin-1-yl)pyrimidin-4-yl)-1H-indazol-5-amine]",73.8%
2,"CC(C)C1CN(c2ncc(Cl)c(Nc3ccc4[nH]ncc4c3)n2)CCN1 (stereo not drawn) [Example 185, N-(5-chloro-2-(3-isopropylpiperazin-1-yl)pyrimidin-4-yl)-1H-indazol-5-amine]",19.7%
3,"CCC1CN(c2ncc(Cl)c(Nc3ccc4[nH]ncc4c3)n2)CCCN1 (stereo not drawn) [Example 186, N-(5-chloro-2-(3-ethyl 4-diazepan-1-yl)pyrimidin-4-yl)-1H-indazol-5-amine]",47.8%
4,"CCC1CCN(c2ncc(Cl)c(Nc3ccc4[nH]ncc4c3)n2)CCN1 (stereo not drawn) [Example 188, N-(5-chloro-2-(5-ethyl-1,4-diazepan-1-yl)pyrimidin-4-yl)-1H-indazol-5-amine]",44.9%
5,"CCC1CN(c2ncc(Cl)c(Nc3ccc4[nH]ncc4c3)n2)CCN1 (stereo not drawn) [Example 190, N-(5-chloro-2-(3-ethylpiperazin-1-yl)pyrimidin-4-yl)-1H-indazol-5-amine]",41%
6,"CC1CCN(c2ncc(Cl)c(Nc3ccc4[nH]ncc4c3)n2)CCN1 (stereo not drawn) [Example 191, N-(5-chloro-2-(5-methyl-1,4-diazepan-1-yl)pyrimidin-4-yl)-1H-indazol-5-amine]",67%
7,"CC1CNCCN(c2ncc(Cl)c(Nc3ccc4[nH]ncc4c3)n2)C1 (stereo not drawn) [Example 193, N-(5-chloro-2-(6-methyl-1,4-diazepan-1-yl)pyrimidin-4-yl)-1H-indazol-5-amine]",84.4%
8,"Clc1cnc(N2CC3CCC(C2)N3)nc1Nc1ccc2[nH]ncc2c1 [Example 195, N-(2-(3,8-diazabicyclo[3.2.1]octan-3-yl)-5-chloropyrimidin-4-yl)-1H-indazol-5-amine]",66%
9,"Cc1cc(Nc2ccc3[nH]ncc3c2)nc(N2CCNC3(CC3)C2)n1 [Example 212, N-(6-methyl-2-(4,7-diazaspiro[2.5]octan-7-yl)pyrimidin-4-yl)-1H-indazol-5-amine]",91.9%
10,"CCC1CNCCN1c1nccc(Nc2ccc3[nH]ncc3c2)n1 (stereo not drawn) [Example 235, N-(2-(2-ethylpiperazin-1-yl)pyrimidin-4-yl)-1H-indazol-5-amine]",94.4%
11,"CC1CCNCCN1c1nccc(Nc2ccc3[nH]ncc3c2)n1 (stereo not drawn) [Example 240, N-(2-(7-methyl-1,4-diazepan-1-yl)pyrimidin-4-yl)-1H-indazol-5-amine]",84.5%

# Same assay, conditions: 9 points 2-fold serial dilution
row,SMILES,IC50
1,"CC1CNCCN(c2ncc(Cl)c(Nc3ccc4[nH]ncc4c3)n2)C1 (stereo not drawn) [Example 193, N-(5-chloro-2-(6-methyl-1,4-diazepan-1-yl)pyrimidin-4-yl)-1H-indazol-5-amine]",282 nM
2,"Clc1cnc(N2CC3CCC(C2)N3)nc1Nc1ccc2[nH]ncc2c1 [Example 195, N-(2-(3,8-diazabicyclo[3.2.1]octan-3-yl)-5-chloropyrimidin-4-yl)-1H-indazol-5-amine]",405 nM
3,"Cc1nc(N2CCNCC2)nc(Nc2ccc3[nH]ncc3c2)c1C [Example 197, N-(5,6-dimethyl-2-(piperazin-1-yl)pyrimidin-4-yl)-1H-indazol-5-amine]",437 nM
4,"c1cc(Nc2ccc3[nH]ncc3c2)nc(N2CC3CC(C2)N3)n1 [Example 199, N-(2-(3,6-diazabicyclo[3.1.1]heptan-3-yl)pyrimidin-4-yl)-1H-indazol-5-amine]",151 nM
5,"c1cc(Nc2ccc3[nH]ncc3c2)nc(N2CC3CCC(C2)N3)n1 [Example 229, N-(2-(3,8-diazabicyclo[3.2.1]octan-3-yl)pyrimidin-4-yl)-1H-indazol-5-amine]",77 nM
6,"CCC1CNCCN1c1nccc(Nc2ccc3[nH]ncc3c2)n1 (stereo not drawn) [Example 235, N-(2-(2-ethylpiperazin-1-yl)pyrimidin-4-yl)-1H-indazol-5-amine]",54 nM

# Tested on: ppMlc (T18/S19) levels in A7R5 cells
# Assay: A7R5 in-cell ELISA (pMLC)
# Format: cell-based, Rat
# Details: Rattus norvegicus, A7R5, A7R5 cells, 1 μM compound; read-out: pMLC % inh A7R5 @ [conc]
# Method in brief: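 Cellular IC50 came from a nonlinear regression fit of ppMlc (T18/S19) signal, read by colorimetric in-cell ELISA on fixed cells. Rat A7R5 aortic smooth muscle cells had been exposed for 90 min to compounds in 9-point 2-fold serial dilution, 24 h after seeding.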
row,SMILES,inhibition at 1 µM
1,"CC1CNCCN(c2ncc(Cl)c(Nc3ccc4[nH]ncc4c3)n2)C1 (stereo not drawn) [Example 193, N-(5-chloro-2-(6-methyl-1,4-diazepan-1-yl)pyrimidin-4-yl)-1H-indazol-5-amine]",32.5%
2,"Clc1cnc(N2CC3CCC(C2)N3)nc1Nc1ccc2[nH]ncc2c1 [Example 195, N-(2-(3,8-diazabicyclo[3.2.1]octan-3-yl)-5-chloropyrimidin-4-yl)-1H-indazol-5-amine]",-3.1%
3,"Cc1cc(Nc2ccc3[nH]ncc3c2)nc(N2CCNC3(CC3)C2)n1 [Example 212, N-(6-methyl-2-(4,7-diazaspiro[2.5]octan-7-yl)pyrimidin-4-yl)-1H-indazol-5-amine]",16.1%

# Same assay, conditions: Rattus norvegicus, A7R5, A7R5 cells, 10 μM compound; read-out: pMLC % inh A7R5 @ [conc]
row,SMILES,inhibition at 10 µM
1,"CC1CN(c2ncc(Cl)c(Nc3ccc4[nH]ncc4c3)n2)CCN1 (stereo not drawn) [Example 180, N-(5-chloro-2-(3-methylpiperazin-1-yl)pyrimidin-4-yl)-1H-indazol-5-amine]",62.6%
2,"CC(C)C1CN(c2ncc(Cl)c(Nc3ccc4[nH]ncc4c3)n2)CCN1 (stereo not drawn) [Example 185, N-(5-chloro-2-(3-isopropylpiperazin-1-yl)pyrimidin-4-yl)-1H-indazol-5-amine]",41.6%
3,"CCC1CN(c2ncc(Cl)c(Nc3ccc4[nH]ncc4c3)n2)CCCN1 (stereo not drawn) [Example 186, N-(5-chloro-2-(3-ethyl 4-diazepan-1-yl)pyrimidin-4-yl)-1H-indazol-5-amine]",47.7%
4,"CCC1CCN(c2ncc(Cl)c(Nc3ccc4[nH]ncc4c3)n2)CCN1 (stereo not drawn) [Example 188, N-(5-chloro-2-(5-ethyl-1,4-diazepan-1-yl)pyrimidin-4-yl)-1H-indazol-5-amine]",47.9%
5,"CCC1CN(c2ncc(Cl)c(Nc3ccc4[nH]ncc4c3)n2)CCN1 (stereo not drawn) [Example 190, N-(5-chloro-2-(3-ethylpiperazin-1-yl)pyrimidin-4-yl)-1H-indazol-5-amine]",45.9%
6,"CC1CCN(c2ncc(Cl)c(Nc3ccc4[nH]ncc4c3)n2)CCN1 (stereo not drawn) [Example 191, N-(5-chloro-2-(5-methyl-1,4-diazepan-1-yl)pyrimidin-4-yl)-1H-indazol-5-amine]",50.6%
7,"Cc1nc(N2CCNCC2)nc(Nc2ccc3[nH]ncc3c2)c1C [Example 197, N-(5,6-dimethyl-2-(piperazin-1-yl)pyrimidin-4-yl)-1H-indazol-5-amine]",53.8%
8,"c1cc(Nc2ccc3[nH]ncc3c2)nc(N2CC3CC(C2)N3)n1 [Example 199, N-(2-(3,6-diazabicyclo[3.1.1]heptan-3-yl)pyrimidin-4-yl)-1H-indazol-5-amine]",49.6%
9,"c1cc(Nc2ccc3[nH]ncc3c2)nc(N2CC3CCC(C2)N3)n1 [Example 229, N-(2-(3,8-diazabicyclo[3.2.1]octan-3-yl)pyrimidin-4-yl)-1H-indazol-5-amine]",81%
10,"c1ccc(CNC2CCCN(c3nccc(Nc4ccc5[nH]ncc5c4)n3)C2)cc1 (stereo not drawn) [Example 234, N-(2-(3-(benzylamino)piperidin-1-yl)pyrimidin-4-yl)-1H-indazol-5-amine]",55.6%
11,"CC1CCNCCN1c1nccc(Nc2ccc3[nH]ncc3c2)n1 (stereo not drawn) [Example 240, N-(2-(7-methyl-1,4-diazepan-1-yl)pyrimidin-4-yl)-1H-indazol-5-amine]",78.1%

# Same assay, conditions: Rattus norvegicus, A7R5, A7R5 cells, ppMlc (T18/S19)
row,SMILES,IC50
1,"CC1CN(c2ncc(Cl)c(Nc3ccc4[nH]ncc4c3)n2)CCN1 (stereo not drawn) [Example 180, N-(5-chloro-2-(3-methylpiperazin-1-yl)pyrimidin-4-yl)-1H-indazol-5-amine]",1460 nM
2,"CC1CCN(c2ncc(Cl)c(Nc3ccc4[nH]ncc4c3)n2)CCN1 (stereo not drawn) [Example 191, N-(5-chloro-2-(5-methyl-1,4-diazepan-1-yl)pyrimidin-4-yl)-1H-indazol-5-amine]",1850 nM
3,"CC1CNCCN(c2ncc(Cl)c(Nc3ccc4[nH]ncc4c3)n2)C1 (stereo not drawn) [Example 193, N-(5-chloro-2-(6-methyl-1,4-diazepan-1-yl)pyrimidin-4-yl)-1H-indazol-5-amine]",788 nM
4,"Cc1nc(N2CCNCC2)nc(Nc2ccc3[nH]ncc3c2)c1C [Example 197, N-(5,6-dimethyl-2-(piperazin-1-yl)pyrimidin-4-yl)-1H-indazol-5-amine]",581 nM
5,"c1cc(Nc2ccc3[nH]ncc3c2)nc(N2CC3CC(C2)N3)n1 [Example 199, N-(2-(3,6-diazabicyclo[3.1.1]heptan-3-yl)pyrimidin-4-yl)-1H-indazol-5-amine]",525 nM
6,"CCC1CNCCN1c1nccc(Nc2ccc3[nH]ncc3c2)n1 (stereo not drawn) [Example 235, N-(2-(2-ethylpiperazin-1-yl)pyrimidin-4-yl)-1H-indazol-5-amine]",510 nM
7,"CC1CCNCCN1c1nccc(Nc2ccc3[nH]ncc3c2)n1 (stereo not drawn) [Example 240, N-(2-(7-methyl-1,4-diazepan-1-yl)pyrimidin-4-yl)-1H-indazol-5-amine]",1110 nM
